Structures are written as SMILES.

T1 sequence (P03372 whole entry): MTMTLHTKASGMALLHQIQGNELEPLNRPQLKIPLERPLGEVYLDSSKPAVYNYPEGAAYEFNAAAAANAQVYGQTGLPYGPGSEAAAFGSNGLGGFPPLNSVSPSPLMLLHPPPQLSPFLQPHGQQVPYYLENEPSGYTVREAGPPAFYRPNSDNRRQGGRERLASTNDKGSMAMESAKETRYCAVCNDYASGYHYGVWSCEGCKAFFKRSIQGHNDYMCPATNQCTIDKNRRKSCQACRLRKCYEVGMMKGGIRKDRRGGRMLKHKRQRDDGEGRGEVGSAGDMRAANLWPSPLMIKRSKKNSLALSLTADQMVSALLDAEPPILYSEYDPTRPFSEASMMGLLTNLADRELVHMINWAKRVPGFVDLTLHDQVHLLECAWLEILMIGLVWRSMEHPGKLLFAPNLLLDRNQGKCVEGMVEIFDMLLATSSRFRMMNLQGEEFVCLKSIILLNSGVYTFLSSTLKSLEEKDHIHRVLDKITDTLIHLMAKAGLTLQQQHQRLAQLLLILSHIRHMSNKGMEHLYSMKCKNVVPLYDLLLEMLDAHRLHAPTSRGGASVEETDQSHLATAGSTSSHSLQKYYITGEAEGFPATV
Sequence of CRBN/DDB1 (Q96SW2 whole entry): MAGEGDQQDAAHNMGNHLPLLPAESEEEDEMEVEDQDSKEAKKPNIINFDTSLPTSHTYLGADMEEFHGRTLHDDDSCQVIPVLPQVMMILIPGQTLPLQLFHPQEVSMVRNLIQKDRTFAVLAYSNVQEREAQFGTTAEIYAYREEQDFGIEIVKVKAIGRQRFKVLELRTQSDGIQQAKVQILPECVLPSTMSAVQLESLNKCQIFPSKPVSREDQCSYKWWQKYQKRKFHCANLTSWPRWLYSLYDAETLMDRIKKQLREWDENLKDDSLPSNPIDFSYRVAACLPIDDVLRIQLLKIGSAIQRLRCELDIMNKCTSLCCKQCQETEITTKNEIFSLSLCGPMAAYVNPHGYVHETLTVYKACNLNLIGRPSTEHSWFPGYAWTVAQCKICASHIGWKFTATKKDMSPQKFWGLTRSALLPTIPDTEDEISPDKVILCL
Sequence of CRBN/DDB1 (Q16531 whole entry partner): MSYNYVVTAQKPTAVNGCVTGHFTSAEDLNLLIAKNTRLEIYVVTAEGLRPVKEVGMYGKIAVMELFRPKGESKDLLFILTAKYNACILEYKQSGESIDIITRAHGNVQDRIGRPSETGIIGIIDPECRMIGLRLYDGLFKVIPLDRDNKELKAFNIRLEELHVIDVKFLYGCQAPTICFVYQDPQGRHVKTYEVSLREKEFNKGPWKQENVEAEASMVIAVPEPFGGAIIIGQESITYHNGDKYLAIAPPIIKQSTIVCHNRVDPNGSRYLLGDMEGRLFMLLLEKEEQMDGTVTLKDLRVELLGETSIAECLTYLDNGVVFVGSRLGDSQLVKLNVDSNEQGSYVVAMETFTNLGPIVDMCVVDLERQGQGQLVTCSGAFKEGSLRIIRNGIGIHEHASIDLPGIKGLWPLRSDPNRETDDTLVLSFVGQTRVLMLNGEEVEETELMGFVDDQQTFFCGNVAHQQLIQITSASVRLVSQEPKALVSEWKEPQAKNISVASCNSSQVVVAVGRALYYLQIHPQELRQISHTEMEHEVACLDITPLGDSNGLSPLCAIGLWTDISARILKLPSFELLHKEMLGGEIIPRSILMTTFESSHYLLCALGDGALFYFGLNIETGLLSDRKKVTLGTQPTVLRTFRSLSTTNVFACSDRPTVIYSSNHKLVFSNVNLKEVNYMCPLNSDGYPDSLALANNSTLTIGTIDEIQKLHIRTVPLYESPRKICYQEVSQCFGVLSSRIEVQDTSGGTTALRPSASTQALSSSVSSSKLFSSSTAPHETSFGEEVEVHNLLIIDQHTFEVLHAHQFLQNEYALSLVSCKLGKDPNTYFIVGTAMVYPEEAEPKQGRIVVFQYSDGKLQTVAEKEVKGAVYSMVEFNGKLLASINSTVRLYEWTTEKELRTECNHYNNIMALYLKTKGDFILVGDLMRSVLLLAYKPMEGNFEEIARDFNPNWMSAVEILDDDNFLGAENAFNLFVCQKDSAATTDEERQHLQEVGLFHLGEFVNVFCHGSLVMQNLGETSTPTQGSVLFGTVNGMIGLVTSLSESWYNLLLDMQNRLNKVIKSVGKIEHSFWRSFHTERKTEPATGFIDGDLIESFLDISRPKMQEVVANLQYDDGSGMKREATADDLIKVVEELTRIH

The first test has as its target CRBN/DDB1 (Homo sapiens (Human), UniProt Q96SW2). Put plainly: HTRF binding assay to CRBN/DDB1. The following applies: read-out: CRBN HTRF IC50. As to the method:
The binding potency was determined using HTRF assay technology (Perkin Elmer). Compounds were serially diluted in DMSO and 0.2 μL volume was transferred to white 384-well plate.
Take `COc1cccc([C@@H]2COc3cc(O)ccc3[C@@H]2c2ccc(N3CCC(CN4CCN5c6ccc7c(c6OC[C@H]5C4)CN(C4CCC(=O)NC4=O)C7=O)CC3)cc2)c1` (single isomer, unassigned) [Compound A34]: the 50% inhibitory concentration (IC50) is 50 to 500 nM.
Still for that read-out and setting: as for `O=C1CCC(N2Cc3cc4c(cc3C2=O)OC[C@@H]2CN(CC3CCN(c5ncc([C@@H]6c7ccc(O)cc7OC[C@@H]6c6ccccc6)cn5)CC3)CCN42)C(=O)N1` (stereo partly drawn) [Compound A10, 3-((S)-3-((1-(5-((3S,4R)-7-hydroxy-3-phenylchroman-4-yl)pyrimidin-2-yl)piperidin-4-yl)methyl)-8-oxo-1,2,3,4,4a,5,8,10-octahydro-9H-pyrazino[1′,2′:4,5][1,4]oxazino[2,3-f]isoindol-9-yl)piperidine-2,6-dione], the figure is 500 to 5000 nM; as for `O=C1CCC(N2C(=O)c3cc4c(cc3C2=O)CN(CC(=O)N2CCC3(CC2)CCN(c2ncc([C@@H]5c6ccc(O)cc6OC[C@@H]5c5ccccc5)cn2)CC3)C4)C(=O)N1` (stereo partly drawn) [Compound A5, 2-(2,6-dioxopiperidin-3-yl)-6-(2-(9-(5-((3S,4R)-7-hydroxy-3-phenylchroman-4-yl)pyrimidin-2-yl)-3,9-diazaspiro[5.5]undecan-3-yl)-2-oxoethyl)-6,7-dihydropyrrolo[3,4-f]isoindole-1,3(2H,5H)-dione], 500 to 5000 nM.
`COc1ccc([C@@H]2COc3cc(O)ccc3[C@@H]2c2ccc(N3CCC(CN4CCN5c6ccc7c(c6OC[C@@H]5C4)CN(C4CCC(=O)NC4=O)C7=O)CC3)cc2)cc1` (single isomer, unassigned) [Compound A12]: the IC50 lay in the range of 50 to 500 nM.
Same read-out and setting: as for `O=C1CCC(N2Cc3c(ccc4c3OC[C@@H]3CN(CC5CC6(CCN(c7ccc([C@H]8c9ccc(O)cc9OC[C@H]8c8ccccc8)cc7)CC6)C5)CCN43)C2=O)C(=O)N1` (single isomer, unassigned) [Compound A21, 3-((S)-7-((7-(4-((3R,4S)-7-hydroxy-3-phenylchroman-4-yl)phenyl)-7-azaspiro[3.5]nonan-2-yl)methyl)-1-oxo-1,3,5,5a,6,7,8,9-octahydro-2H-pyrazino[1′,2′:4,5][1,4]oxazino[2,3-e]isoindol-2-yl)piperidine-2,6-dione], the figure is less than 50 nM; as for `COc1ccc([C@H]2COc3cc(O)ccc3[C@H]2c2ccc(N3CCC(CN4CCN5c6ccc7c(c6OC[C@@H]5C4)CN(C4CCC(=O)NC4=O)C7=O)CC3)cc2)cc1` (single isomer, unassigned) [Compound A13], 50 to 500 nM; as for `COc1cccc([C@H]2COc3cc(O)ccc3[C@H]2c2ccc(N3CCC(CN4CCN5c6ccc7c(c6OC[C@@H]5C4)CN(C4CCC(=O)NC4=O)C7=O)CC3)cc2)c1` (single isomer, unassigned) [Compound A23], less than 50 nM.
Still for that read-out and setting: the figure for `Cc1nn(C2CCC(=O)NC2=O)c2ccc(N3CCN(CC4CC5(CCN(c6ccc([C@@H]7c8ccc(O)cc8OC[C@@H]7c7ccccc7)cc6)CC5)C4)CC3)cc12` (single isomer, unassigned) [Compound A25] is 50 to 500 nM; for `O=C1CCC(Nc2ccc(N3CCN(CC4CCN(c5ccc([C@@H]6c7ccc(O)cc7OC[C@@H]6c6ccccc6)cc5F)CC4)CC3)c(F)c2)C(=O)N1` (stereo partly drawn) [Compound A29, 3-((3-fluoro-4-(4-((1-(2-fluoro-4-((3S,4R)-7-hydroxy-3-phenylchroman-4-yl)phenyl)piperidin-4-yl)methyl)piperazin-1-yl)phenyl)amino)piperidine-2,6-dione] it is 500 to 5000 nM; for `O=C1CCC(N2Cc3cc4c(cc3C2=O)OC[C@@H]2CN(CC3CCN(c5ccc([C@H]6c7ccc(O)cc7OC[C@H]6c6ccccc6)cc5)CC3)CCN42)C(=O)N1` (stereo partly drawn) [Compound A11, 3-((S)-3-((1-(4-((3R,4S)-7-hydroxy-3-phenylchroman-4-yl)phenyl)piperidin-4-yl)methyl)-8-oxo-1,2,3,4,4a,5,8,10-octahydro-9H-pyrazino[1′,2′:4,5][1,4]oxazino[2,3-f]isoindol-9-yl)piperidine-2,6-dione] it is greater than 5000 nM.
The same measure, in the same setting: the figure for `COc1cccc([C@@H]2COc3cc(O)ccc3[C@@H]2c2ccc(N3CCC(CN4CCN5c6ccc7c(c6OC[C@@H]5C4)CN(C4CCC(=O)NC4=O)C7=O)CC3)cc2)c1` (single isomer, unassigned) [Compound A24] is less than 50 nM; for `O=C1CCC(N2Cc3c(ccc4c3OC[C@@H]3CN(CC5CC6(CCN(c7ccc([C@@H]8c9ccc(O)cc9OC[C@@H]8c8ccccc8)cc7)CC6)C5)CCN43)C2=O)C(=O)N1` (stereo partly drawn) [Compound A22, 3-((S)-7-((7-(4-((3S,4R)-7-hydroxy-3-phenylchroman-4-yl)phenyl)-7-azaspiro[3.5]nonan-2-yl)methyl)-1-oxo-1,3,5,5a,6,7,8,9-octahydro-2H-pyrazino[1′,2′:4,5][1,4]oxazino[2,3-e]isoindol-2-yl)piperidine-2,6-dione] it is less than 50 nM.
Take `O=C1CCC(N2Cc3c(ccc4c3OC[C@@H]3CN(CC5CCN(c6ncc([C@H]7c8ccc(O)cc8OC[C@H]7c7ccccc7)cn6)CC5)CCN43)C2=O)C(=O)N1` (single isomer, unassigned) [Compound A19]: the IC50 fell in the range of 50 to 500 nM.
On the same count and under the same terms, the figure for `COc1ccc([C@@H]2COc3cc(O)ccc3[C@@H]2c2ccc(N3CCC(CN4CCN5c6ccc7c(c6OC[C@H]5C4)CN(C4CCC(=O)NC4=O)C7=O)CC3)cc2)cc1` (single isomer, unassigned) [Compound A15] is 50 to 500 nM; for `O=C1CCC(N2C(=O)c3cc4c(cc3C2=O)CN(CC(=O)N2CCC3(CC2)CCN(c2ncc([C@H]5c6ccc(O)cc6OC[C@H]5c5ccccc5)cn2)CC3)C4)C(=O)N1` (stereo partly drawn) [Compound A4, 2-(2,6-dioxopiperidin-3-yl)-6-(2-(9-(5-((3R,4S)-7-hydroxy-3-phenylchroman-4-yl)pyrimidin-2-yl)-3,9-diazaspiro[5.5]undecan-3-yl)-2-oxoethyl)-6,7-dihydropyrrolo[3,4-f]isoindole-1,3(2H,5H)-dione] it is 500 to 5000 nM; for `O=C1CCC(N2Cc3c(ccc4c3OC[C@@H]3CN(CC5CCN(c6ncc([C@@H]7c8ccc(O)cc8OC[C@@H]7c7ccccc7)cn6)CC5)CCN43)C2=O)C(=O)N1` (single isomer, unassigned) [Compound A20] it is less than 50 nM.
Same read-out and setting: as for `O=C1CCC(Nc2ccc(N3CCN(CC4CCN(c5ccc([C@@H]6c7ccc(O)cc7OC[C@@H]6c6ccccc6)cc5)CC4)CC3)c(F)c2)C(=O)N1` (stereo partly drawn) [Compound A30, 3-((3-fluoro-4-(4-((1-(4-((3S,4R)-7-hydroxy-3-phenylchroman-4-yl)phenyl)piperidin-4-yl)methyl)piperazin-1-yl)phenyl)amino)piperidine-2,6-dione], the figure is 500 to 5000 nM; as for `O=C1CCC(N2C(=O)c3cc4c(cc3C2=O)CN(C(=O)CN2CC3(CCN(c5ccc([C@@H]6c7ccc(O)cc7OC[C@@H]6c6ccccc6)cc5)CC3)C2)C4)C(=O)N1` (stereo partly drawn) [Compound A32, 2-(2,6-dioxopiperidin-3-yl)-6-(2-(7-(4-((3S,4R)-7-hydroxy-3-phenylchroman-4-yl)phenyl)-2,7-diazaspiro[3.5]nonan-2-yl)acetyl)-6,7-dihydropyrrolo[3,4-f]isoindole-1,3(2H,5H)-dione], 500 to 5000 nM; as for `O=C1CCC(N2Cc3cc4c(cc3C2=O)OC[C@@H]2CN(CC3CC5(CCN(c6ccc([C@@H]7c8ccc(O)cc8OC[C@@H]7c7ccccc7)cc6)CC5)C3)CCN42)C(=O)N1` (stereo partly drawn) [Compound A28, 3-((S)-3-((7-(4-((3S,4R)-7-hydroxy-3-phenylchroman-4-yl)phenyl)-7-azaspiro[3.5]nonan-2-yl)methyl)-8-oxo-1,2,3,4,4a,5,8,10-octahydro-9H-pyrazino[1′,2′:4,5][1,4]oxazino[2,3-f]isoindol-9-yl)piperidine-2,6-dione], greater than 5000 nM.
On the same count and under the same terms, as for `O=C1CCC(N2Cc3cc4c(cc3C2=O)OC[C@@H]2CN(CC3CCN(c5ncc([C@H]6c7ccc(O)cc7OC[C@H]6c6ccccc6)cn5)CC3)CCN42)C(=O)N1` (stereo partly drawn) [Compound A18, 3-((S)-3-((1-(5-((3R,4S)-7-hydroxy-3-phenylchroman-4-yl)pyrimidin-2-yl)piperidin-4-yl)methyl)-8-oxo-1,2,3,4,4a,5,8,10-octahydro-9H-pyrazino[1′,2′:4,5][1,4]oxazino[2,3-f]isoindol-9-yl)piperidine-2,6-dione], the figure is 500 to 5000 nM.

Another test has as its target T1, ER (Homo sapiens (Human), UniProt P03372). Nature of the test: In-cell western (ICW) ER degradation assay in MCF-7 cells. The following applies: ER degradation, MCF7, 16 hrs. The format is cell-based. The procedure: (§1) ERa degradative activity of compounds can be assessed in MCF-7 and T47D Cells. MCF-7 and T47D cell are seeded and are subsequently treated with the compounds at certain concentrations (e.g., 0.02 to 300 nM). DMSO can be used as vehicle control. Cells are fixed and are blocked with Intercept (PBS) Blocking Buffer (e.g., Li-COR, Odyssey Blocking Buffer), and are stained with ER (e.g., 1:500, Cell signaling) primary antibody for overnight at cold room. Secondary Antibody (e.g., IRDye 800CW Goat anti-Rabbit IgG) and CellTag 700 Stain are added in Intercept (PBS) Blocking Buffer. Finally, cell plate is placed in incubator to dry. Image and signal are captured on Odyssey® DLx Imaging System.
(§2) Day 3: After 16 hrs of compounds treatment, cells were fixed by 4% PFA and permeabilized with elution buffer (0.1% Triton X-100 in 1% PBS Solution). Subsequently, cells were blocked with Intercept (PBS) Blocking Buffer (Li-COR, Odyssey Blocking Buffer), and were stained with ER (1:500, Cell signaling) primary antibody for overnight at cold room.
(§3) Day 4: Remove the buffer, add IRDye 800CW Goat anti-Rabbit IgG Secondary Antibody (1:2000) and CellTag 700 Stain (1:500) in Intercept (PBS) Blocking Buffer. Finally, cell plate is placed in incubator to dry. Image and signal were captured on Odyssey® DLx Imaging System.
In turn, `COc1cccc([C@@H]2COc3cc(O)ccc3[C@@H]2c2ccc(N3CCC(CN4CCN5c6ccc7c(c6OC[C@H]5C4)CN(C4CCC(=O)NC4=O)C7=O)CC3)cc2)c1` (single isomer, unassigned) [Compound A34] showed a DC50 of 1 to 10 nM.

Staying with this test, now noted: MCF7, maximal ER degradation, MCF7, 16 hrs.
The compound `COc1cccc([C@@H]2COc3cc(O)ccc3[C@@H]2c2ccc(N3CCC(CN4CCN5c6ccc7c(c6OC[C@H]5C4)CN(C4CCC(=O)NC4=O)C7=O)CC3)cc2)c1` (single isomer, unassigned) [Compound A34] gave a maximal degradation (Dmax) of 25 to 50%.
Take `COc1cccc([C@H]2COc3cc(O)ccc3[C@H]2c2ccc(N3CCC(CN4CCN5c6ccc7c(c6OC[C@H]5C4)CN(C4CCC(=O)NC4=O)C7=O)CC3)cc2)c1` (single isomer, unassigned) [Compound A33, 3-((R)-7-((1-(4-((3S,4R)-7-hydroxy-3-(3-methoxyphenyl)chroman-4-yl)phenyl)piperidin-4-yl)methyl)-1-oxo-1,3,5,5a,6,7,8,9-octahydro-2H-pyrazino[1′,2′:4,5][1,4]oxazino[2,3-e]isoindol-2-yl)piperidine-2,6-dione]: the Dmax lay in the range of 50 to 75%.

The target of another test is T1, ER. Nature of the test: In-cell western (ICW) ER degradation assay in T47D cells. The format is cell-based. The following applies: maximal ER degradation, 16 hrs. As to the method: as §1, §2, §3
In turn, `COc1cccc([C@H]2COc3cc(O)ccc3[C@H]2c2ccc(N3CCC(CN4CCN5c6ccc7c(c6OC[C@H]5C4)CN(C4CCC(=O)NC4=O)C7=O)CC3)cc2)c1` (single isomer, unassigned) [Compound A33, 3-((R)-7-((1-(4-((3S,4R)-7-hydroxy-3-(3-methoxyphenyl)chroman-4-yl)phenyl)piperidin-4-yl)methyl)-1-oxo-1,3,5,5a,6,7,8,9-octahydro-2H-pyrazino[1′,2′:4,5][1,4]oxazino[2,3-e]isoindol-2-yl)piperidine-2,6-dione] showed a Dmax of 50 to 75%.

Broadly, the IC50 is the concentration needed to halve the response being measured. For orientation: DC50 means the midpoint of the concentration-degradation curve. Lower therefore signals degradation at low concentration. For orientation: Dmax means the largest share of the target that was removed.

Source of the values: US20260000676A1, “CHROMAN DERIVATIVES AS ESTROGEN RECEPTOR DEGRADERS” (THE REGENTS OF THE UNIVERSITY OF MICHIGAN, priority 2022, published 2026).
